Measurements reported in EP1306084A1, “Compositions for the control of parasitic infestations in fish” (Alpharma AS, priority 1998, dated 1999).

How the values were obtained:
sea lice [1] = assay: Oral treatment (coated feed / Akvaletter) of naturally sea lice infected salmon in minicages (Example 2); format: in vivo, Atlantic salmon (Salmo salar)
Method: The treatment dosage was 9 mg hexaflumuron per kg fish per day for 10 days. This is indicated by "Groups/Timepoints" in the figure; • Figure 2 relates to the trial in Example 2 that was carried out on Atlantic salmon (Salmo salar). […] The treatment dosage varied between 3 - 9 mg hexaflumuron and 9- 12 mg fluazuron per kg fish per day for 7 days. This is indicated by "Groups/Timepoints" in the diagram. […] The treated groups are compared to an untreated control group. The treatment dosage was 4 mg hexaflumuron per kg fish per day for 5 days. This is indicated by "Groups/Timepoints" in the figure. Cage 2 = controls, Cage 4-6 = treated groups, 16.6.97 = time point for sea transfer and 5.8.97= controls treated by bathing with deltamethrin; • Figure 4 relates to the trial described in Example 5, which was carried out on sea trout (Salmo trutta). […] The treated groups are compared with an untreated control group. The dosage for oral treatment was 4 mg hexaflumuron per kilo fish per day for 5 days, and 5 ppm hexaflumuron as a 30 minute bath treatment. This is indicated by "Groups/Timepoints" in the figure. Cage 1.4 = Controls, cage 1.3 = Oral treatment, cage 1.2 = Bath treatment. […] The treated groups are compared with an untreated control group, and one group that has been treated orally with teflubenzuron (10 mg/kg of teflubenzuron per kg fish per day for 7 days). The dosage for oral treatment was 5.6 mg hexaflumuron per kg fish per day for 7 days, and 5 ppm hexaflumuron as a 30 minute bath treatment. […] End of treatment: 22.10.97, Sea transfer: 23.10.97. T1 = 3 weeks post end of treatment, T2 = 5 weeks post end of treatment, T3 = 9 weeks post end of treatment, T4 = 12 weeks post end of treatment; • Figure 6 relates to the trial in Example 6 at time points 4-6, with the same trial parameters as for Figure 5. T5 = 15 weeks post end of treatment, T6 = 17 weeks post end of treatment. Cage 3 and 4 were treated by bath with deltamethrin after sea lice counting at T4 (12.01.98); • Figure 7 relates to the trial described in Example 7 where salmon were injected on 17.12.97 with two formulations (groups L and R, respectively) of hexaflumuron and a vaccine formulation without hexaflumuron (control). […] The vaccinated fish was transferred to sea water on 09.01.98; • Figure 8 summarises the trial of Example 8 where salmon smolts were injected with 9 different active substances on 08.07.98. Only results for Moxidectin (Mox.), Lufenuron (Luf.) and hexaflumuron in Apoject 1-Fural (Hex.Apo) and in animal oil (Hex.oil) are shown, and • Figure 9 summarises the trial described in Example 10 where salmon were injected on 03.12.97 with 3 different formulations of hexaflumuron (Hexa 1, Hexa 2 and Hexa 3). The fish were transferred to sea water at T0. […]

[2] = Specific growth rate after sea transfer (Example 4); format: in vivo, salmon (Salmo salar); settings: treated groups, after about 12 weeks; control group 1.79%
Method: About 2,500 salmon (Salmo salar) of average weight 42 grams were treated orally with a daily dosage of 4 mg hexaflumuron per kilo fish for 5 days. The treatment was carried out in freshwater one week before the fish were transferred to sea water. In the sea water, the fish was distributed into 3 different minicages with 800-850 fish in each. At the same time 1,000 untreated fish (from a different fish farm) weighing on average 50 grams were transferred to sea in a neighbouring cage. After being transferred to sea water, the fish were exposed to natural sea lice infection. The number of lice on 10 fish from each cage were counted every third week to check if there was any difference in the number of lice in the cages. When ending the trial, about 12 weeks after the fish had been transferred to sea, the fish in each cage were weighed to check possible differences in growth (SGR, specific growth rate). The water temperature varied between 10-16°C during the trial. […] From 9 weeks on, there was no difference between the groups. The dosage rate that was used in this trial, i.e. 4 mg of hexaflumuron per kg fish per day, is very low. By increasing the dosage the protection time would probably be extended. […] The SRG was measured after about 12 weeks and it was estimated at 1.79% in the control group, and 1.95 - 2.00% in the treated groups.

sea lice [3] = assay: Oral treatment in freshwater before sea transfer, sea lice counts after natural infection (Example 4); format: in vivo, salmon (Salmo salar)
Method: The treatment dosage was 9 mg hexaflumuron per kg fish per day for 10 days. This is indicated by "Groups/Timepoints" in the figure; • Figure 2 relates to the trial in Example 2 that was carried out on Atlantic salmon (Salmo salar). […] The treatment dosage varied between 3 - 9 mg hexaflumuron and 9- 12 mg fluazuron per kg fish per day for 7 days. This is indicated by "Groups/Timepoints" in the diagram. […] The treated groups are compared to an untreated control group. The treatment dosage was 4 mg hexaflumuron per kg fish per day for 5 days. This is indicated by "Groups/Timepoints" in the figure. Cage 2 = controls, Cage 4-6 = treated groups, 16.6.97 = time point for sea transfer and 5.8.97= controls treated by bathing with deltamethrin; • Figure 4 relates to the trial described in Example 5, which was carried out on sea trout (Salmo trutta). […] The treated groups are compared with an untreated control group. The dosage for oral treatment was 4 mg hexaflumuron per kilo fish per day for 5 days, and 5 ppm hexaflumuron as a 30 minute bath treatment. This is indicated by "Groups/Timepoints" in the figure. Cage 1.4 = Controls, cage 1.3 = Oral treatment, cage 1.2 = Bath treatment. […] The treated groups are compared with an untreated control group, and one group that has been treated orally with teflubenzuron (10 mg/kg of teflubenzuron per kg fish per day for 7 days). The dosage for oral treatment was 5.6 mg hexaflumuron per kg fish per day for 7 days, and 5 ppm hexaflumuron as a 30 minute bath treatment. […] End of treatment: 22.10.97, Sea transfer: 23.10.97. […]
About 2,500 salmon (Salmo salar) of average weight 42 grams were treated orally with a daily dosage of 4 mg hexaflumuron per kilo fish for 5 days. […] The number of lice on 10 fish from each cage were counted every third week to check if there was any difference in the number of lice in the cages. […]

Which results are given for `O=C(NC(=O)c1c(F)cccc1F)Nc1cc(Cl)c(OC(F)(F)C(F)F)c(Cl)c1` [hexaflumuron]?
reduced the number of lice as compared to the control treatment (sea lice [1]; all groups treated with hexaflumuron, 3.0-9.0 mg per day, 7 days, 8.0 - 9.8°C): more than 70%; reduction of sensitive chalimus and pre-adult stages (sea lice [1]; groups given the highest dosage (9.0 mg per day, 7 days)): > 99%; reduction of sensitive chalimus and pre-adult stages (sea lice [1]; hexaflumuron groups, 3.0-9.0 mg per day, 7 days): > 90%; SGR (specific growth rate) [2]: 1.95 - 2.00%; protection from sea lice infestation after transfer to sea (sea lice [3]; oral 4 mg per kilo fish daily for 5 days in freshwater): 6-9 weeks; number of lice larger than Chalimus II versus control (sea lice [3]; oral 4 mg per kilo fish daily for 5 days, 3 and 6 weeks after sea transfer): significantly lower
